Data from US12391685B2, “Inhibitors of RNA-guided nuclease target binding and uses thereof” (THE BROAD INSTITUTE, INC., priority 2018, dated 2025).

What was measured:
[1] = biological target: T1, SpCas9 (Streptococcus pyogenes serotype M1, UniProt Q99ZW2); assay: mKate2-disruption assay in HEK293T cells; type: cell-based, S. pyogenes; settings: 1.5-5 μM, 24 h
Protocol: mKate2-disruption assay. Approximately 8,000 cells/well were seeded in a 96-well plate 24 h before transient transfection with 100 ng of either CgRNA (Addgene Plasmid #64955) or T1gRNA (Addgene Plasmid #62717) plasmids using Lipofectamine 2000 (Life Technologies). Transfected cells were allowed to grow in the indicated amount of small molecule or DMSO for 24 h. Cells were then fixed using 4% paraformaldehyde and imaged with the HCS NuclearMask™ Blue Stain (Life Technologies) as the nuclear counter-staining agent. Imaging was performed with an ImageXpress Micro automated microscope (Molecular Devices) at 20× magnification under two excitation channels (blue and red) with 9 acquisition sites per well. Images were analyzed using the MetaXpress software to determine the % mKate2 positive cells and data was plotted using GraphPad Prism 6. The Z′-value was calculated following the formula: Z′=1−(3(σ1+σ2))/(|μ1−μ2|) where σ1 and σ2 are the standard deviations of CgRNA transfected wells and T1gRNA transfected wells respectively. μ1 and μ2 are the mean % RFP^+ cell population for CgRNA transfected wells and T1gRNA transfected wells, respectively.

[2] = system: U2OS.eGFP.PEST cells and HEK293T cells; assay: Cell viability (ATP content); settings: 5-20 μM, 24 h
[3] = biological target: T1, SpCas9; assay: NHEJ assay in HEK293T cells; type: cell-based, S. pyogenes; settings: 2-10 μM, 24 h
Protocol: NHEJ assay. Approximately 8,000 cells/well were seeded in a 96-well plate 24 h before transient transfection with a total 100 ng of DN66 (mCherry—TAG—GFP reporter) and DN78 (SpCas9 and gRNA) plasmids (1:1) using Lipofectamine 2000 (Life Technologies) (Nguyen et al., 2016b). Transfected cells were incubated with the indicated amount of small molecule or DMSO for 24 h. Cells were then fixed using 4% paraformaldehyde and imaged with the HCS NuclearMask™ Blue Stain (Life Technologies) as the nuclear counter-staining agent. Imaging was performed with an ImageXpress Micro automated microscope (Molecular Devices) at 4× magnification under three excitation channels (blue, green and red) with 9 acquisition sites per well. Images were analyzed in the MetaXpress software to determine the % NHEJ and the data were plotted using GraphPad Prism 6. The Z′-value was calculated following the formula: Z′=1−(3(σ1+σ2))/(|μ1−μ2|) where σ1 and σ2 are the standard deviations of DN66 transfected wells and (DN66+DN78) transfected wells respectively. μ1 and μ2 are the mean % GFP cell population for DN66 transfected wells and (DN66+DN78) transfected wells respectively.

[4] = biological target: FnCpf1 (Francisella tularensis subsp. novicida, UniProt A0Q7Q2); type: cell-based; settings: 6-20 μM, 30 h
FnCpf1, sequence (A0Q7Q2 whole entry, looked up): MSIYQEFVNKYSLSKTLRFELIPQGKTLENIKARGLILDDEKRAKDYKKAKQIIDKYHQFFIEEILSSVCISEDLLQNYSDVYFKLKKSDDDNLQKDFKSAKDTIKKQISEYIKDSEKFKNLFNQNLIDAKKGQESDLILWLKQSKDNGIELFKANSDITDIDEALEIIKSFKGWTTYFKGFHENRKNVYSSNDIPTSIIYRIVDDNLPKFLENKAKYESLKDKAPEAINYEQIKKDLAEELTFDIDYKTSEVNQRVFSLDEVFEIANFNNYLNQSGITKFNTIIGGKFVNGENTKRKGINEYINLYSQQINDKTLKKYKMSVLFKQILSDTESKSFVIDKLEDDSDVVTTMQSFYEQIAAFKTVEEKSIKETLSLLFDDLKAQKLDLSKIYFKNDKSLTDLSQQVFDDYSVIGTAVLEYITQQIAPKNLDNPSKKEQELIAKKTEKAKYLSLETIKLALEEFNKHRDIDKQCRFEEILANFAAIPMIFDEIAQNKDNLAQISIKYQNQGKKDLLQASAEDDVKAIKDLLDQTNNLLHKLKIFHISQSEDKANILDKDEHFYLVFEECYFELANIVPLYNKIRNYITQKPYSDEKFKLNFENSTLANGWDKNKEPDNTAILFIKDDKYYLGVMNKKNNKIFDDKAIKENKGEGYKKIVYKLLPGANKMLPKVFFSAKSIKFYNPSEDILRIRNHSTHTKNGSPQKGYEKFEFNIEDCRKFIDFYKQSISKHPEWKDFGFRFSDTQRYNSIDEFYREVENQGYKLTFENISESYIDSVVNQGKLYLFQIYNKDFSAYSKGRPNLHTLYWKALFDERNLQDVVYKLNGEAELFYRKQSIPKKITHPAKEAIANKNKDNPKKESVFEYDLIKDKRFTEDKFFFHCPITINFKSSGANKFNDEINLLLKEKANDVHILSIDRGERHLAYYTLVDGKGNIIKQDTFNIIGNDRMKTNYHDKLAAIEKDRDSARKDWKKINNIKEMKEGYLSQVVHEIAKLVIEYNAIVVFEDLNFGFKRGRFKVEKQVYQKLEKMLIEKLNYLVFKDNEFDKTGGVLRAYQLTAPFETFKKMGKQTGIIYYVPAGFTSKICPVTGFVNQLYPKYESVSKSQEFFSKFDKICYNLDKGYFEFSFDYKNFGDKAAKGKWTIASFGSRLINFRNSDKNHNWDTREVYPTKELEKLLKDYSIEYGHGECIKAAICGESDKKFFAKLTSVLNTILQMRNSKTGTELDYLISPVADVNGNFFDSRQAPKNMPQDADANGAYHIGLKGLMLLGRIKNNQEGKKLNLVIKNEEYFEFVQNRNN

[5] = biological target: T1, SpCas9; assay: HiBiT assay in U2OS.eGFP.PEST cells; type: cell-based, S. pyogenes; design: host or cells: U2OS.eGFP.PEST; settings: 24 h
Protocol: HiBiT assay. For SpCas9 expression in cells, the previously described JDS246 plasmid was used (Kleinstiver et al., 2015b). ssODN donor DNA template with the HiBiT tag was purchased as single-stranded Ultramer DNA Oligonucleotides (IDT) and resuspended to 40 μM in nuclease-free water. For the assay, 2×10^5 cells were co-transfected with 300 ng Cas9 plasmid, 75 ng sgRNA plasmid and 100 ng ssODN using the DN-100 program of Lonza 4D nucleofector according to the manufacturer's protocols. For negative controls, either the sgRNA plasmid or the ssODN was omitted. 20,000 transfected cells were plated in each well of a 96-well plate (Corning 3904). Immediately after transfection, cells were treated with varying concentrations of BRD0539 or BRD3433 and incubated at 37° C. with 5% CO2. 24 h after transfection, the cells were washed once with PBS and kept in 80 μL PBS. An equal volume of the Nano-Glo HiBiT Lytic Reagent (Promega N3030), consisting of Nano-Glo HiBiT Lytic Buffer, Nano-Glo HiBiT Lytic Substrate, and LgBiT Protein, was added according to the manufacturer's protocol, and cells were incubated for 10 min at ambient temperature with shaking at 600 rpm (Schwinn et al., 2018a). The cells were then incubated for an additional 10 min without shaking at room temperature to allow equilibration of the HiBiT and LgBiT in the lysate. The lysate was then transferred to a white plate (Corning 3990) and luminescence was measured using an Envision plate reader (Perkin-Elmer) with 1 s of integration time.

[6] = biological target: T1, SpCas9; assay: Reversibility of SpCas9 inhibition (pulse-chase, eGFP-disruption assay); type: cell-based, S. pyogenes; design: made in house; host or cells: E. coli Rosetta (DE3); settings: 15 μM BRD0539 or SpCas9:gRNA:AcrIIA4 complex, media swap 2-24 h
Protocol: Reversal of BRD0539-mediated inhibition of SpCas9 was performed in the eGFP-disruption assay where 2×10^5 U2OS.eGFP.PEST cells were nucleofected with preformed SpCas9:gRNA complex as previously discussed. Approximately 22,000 transfected cells/well were plated in 4 replicates in a 96-well plate (Corning® 3904) along with 15 μM of BRD0539 or DMSO. For AcrIIA4 reversibility experiment, a preformed SpCas9:gRNA (10 pmol) was incubated with AcrIIA4 (5×) for 10 min and then nucleofected to U2OS.eGFP.PEST cells following the aforementioned protocol. The media were swapped with the fresh media containing no BRD0539/AcrIIA4 at the indicated time point (2-24 h) and the cells were allowed to grow until 24 h post-nucleofection. Cells were then fixed using 4% paraformaldehyde and imaged with the HCS NuclearMask™ Blue Stain (Life Technologies) as the nuclear counter-staining agent. Imaging was performed with an ImageXpress Micro automated microscope (Molecular Devices) at 10× magnification under three excitation channels (blue, green and red) acquiring nine sites per well. Images were analyzed using MetaXpress software and data were plotted using GraphPad Prism 6.

T1 sequence (Q99ZW2 whole entry): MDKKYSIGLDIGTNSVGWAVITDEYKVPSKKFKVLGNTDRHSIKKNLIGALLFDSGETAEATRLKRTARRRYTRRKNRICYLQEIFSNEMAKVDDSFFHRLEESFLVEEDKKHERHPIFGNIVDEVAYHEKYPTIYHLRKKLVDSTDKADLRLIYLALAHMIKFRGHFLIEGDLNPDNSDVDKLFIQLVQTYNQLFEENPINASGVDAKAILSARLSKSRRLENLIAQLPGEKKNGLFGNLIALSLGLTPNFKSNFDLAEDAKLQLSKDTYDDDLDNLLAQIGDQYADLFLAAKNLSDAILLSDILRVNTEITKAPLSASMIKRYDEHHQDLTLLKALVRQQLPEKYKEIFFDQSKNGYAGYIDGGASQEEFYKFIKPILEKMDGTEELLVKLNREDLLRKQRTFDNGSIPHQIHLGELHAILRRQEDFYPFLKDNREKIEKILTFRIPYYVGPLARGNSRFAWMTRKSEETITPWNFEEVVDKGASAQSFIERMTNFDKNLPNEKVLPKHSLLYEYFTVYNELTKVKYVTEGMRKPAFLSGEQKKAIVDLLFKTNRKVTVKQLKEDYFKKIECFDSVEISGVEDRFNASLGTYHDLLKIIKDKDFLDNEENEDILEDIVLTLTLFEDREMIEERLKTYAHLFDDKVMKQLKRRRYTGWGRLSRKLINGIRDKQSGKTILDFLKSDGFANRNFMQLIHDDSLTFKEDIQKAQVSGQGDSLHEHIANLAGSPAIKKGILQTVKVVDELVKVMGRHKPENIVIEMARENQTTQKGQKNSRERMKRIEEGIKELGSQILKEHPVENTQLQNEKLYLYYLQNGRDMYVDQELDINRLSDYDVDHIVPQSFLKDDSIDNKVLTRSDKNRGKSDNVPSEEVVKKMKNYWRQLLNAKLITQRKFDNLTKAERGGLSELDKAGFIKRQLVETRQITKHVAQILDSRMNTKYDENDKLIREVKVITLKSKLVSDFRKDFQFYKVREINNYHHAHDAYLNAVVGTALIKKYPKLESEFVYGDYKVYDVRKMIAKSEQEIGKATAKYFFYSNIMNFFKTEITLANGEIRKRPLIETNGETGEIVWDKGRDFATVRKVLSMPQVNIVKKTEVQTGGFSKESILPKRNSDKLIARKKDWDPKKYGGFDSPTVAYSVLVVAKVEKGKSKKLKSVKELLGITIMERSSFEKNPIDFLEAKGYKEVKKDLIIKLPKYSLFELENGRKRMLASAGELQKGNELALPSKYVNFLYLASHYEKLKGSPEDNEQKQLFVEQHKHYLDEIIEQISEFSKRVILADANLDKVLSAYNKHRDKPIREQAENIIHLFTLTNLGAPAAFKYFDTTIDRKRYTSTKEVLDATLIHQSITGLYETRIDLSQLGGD

Row | SMILES | inhibition of SpCas9 in the mKate2 disruption assay (in words) [1] | cytotoxicity (in words) [2] | inhibition of SpCas9 in the NHEJ assay (in words) [3] | inhibition of FnCpf1 (in words) [4] | inhibition of SpCas9 in the HiBiT assay (in words) [5] | higher activity of BRD0539 than BRD3497 and BRD9419 in the HiBiT assay ([5]; tested from 4.8-15 μM) | reversibility of SpCas9 inhibition (in words) [6]
1 | OC[C@H]1Nc2ccc(-c3cccc(F)c3)cc2[C@H]2[C@@H]1CCN2Cc1ccncc1 [BRD7087, ((3aR,4S,9bR)-8-(3-Fluorophenyl)-1-(pyridin-4-ylmethyl)-2,3,3a,4,5,9b-hexahydro-1H-pyrrolo[3,2-c]quinolin-4-yl) methanol] | dose-dependent inhibition | non-cytotoxic | dose-dependent inhibition |  |  |  | 
2 | Cc1ccc(S(=O)(=O)N2CC[C@@H]3[C@H](CO)Nc4ccc(-c5ccccc5F)cc4[C@@H]32)cc1 [BRD0539, ((3aR,4R,9bR)-8-(2-fluorophenyl)-1-tosyl-2,3,3a,4,5,9b-hexahydro-1H-pyrrolo[3,2-c]quinolin-4-yl) methanol] |  |  |  | unable to inhibit | dose-dependent inhibition | greater than two-fold | reversible inhibition
